# Reference: EP4497440A1, “USE OF 7-TRIFLUOROMETHYL-7ALPHA,25-DIHYDROXYCHOLESTEROL IN THE TREATMENT AND MODULATION OF AUTOIMMUNE AND INFLAMMATORY DISEASES OF THE NERVOUS SYSTEM AND NEURODEGENERATIVE DISEASES” (Gdanski Uniwersytet Medyczny, priority 2023, dated 2025)
# “Also recorded” adds a separate entry of the source.
# Assays:
# Ebi2 receptor = assay: Ebi2 mRNA level in the cerebellum, cuprizone model; type: in vivo, mice; details: during remyelination in the cuprizone model
# [1] = tested on: pro-inflammatory cytokine IL1β; assay: Cuprizone model: IL1β mRNA in cerebellum lysates by PCR
# Source text: Identifying the mRNA levels of pro-inflammatory cytokine IL1β in mouse cerebellum lysates (Fig 11).
# [2] = tested on: mice in the cuprizone model; assay: Cuprizone model: mass spectrometer imaging and lipid quantification in brain sections; type: in vivo
# Source text: Measurement of lipoprotein density in myelin sheaths, taken on sections of brains of the mice in the cuprizone model. The mice in the cuprizone model subject were divided into 6 groups: • #1. control group: regular cuprizone-free chow for 9 weeks. The mice were euthanised after 9 weeks and tissue samples were taken for analysis. In these mice no removal of myelin sheaths occurred. • #2. control group with cuprizone: chow containing cuprizone for 9 weeks. The mice were euthanised after 9 weeks and tissue samples were taken for analysis. In the mice fed with chow containing cuprizone myelin sheaths were removed. • #3. vehicle control group - the mice were fed with chow containing cuprizone for 9 weeks, and then with regular chow without cuprizone for 2 weeks. Over the 2 weeks on regular show the mice in the vehicle control group were first injected with vehicle #1: DMSO, intraperitoneally, 150 µl once a day, and then with vehicle #2: canola oil, subcutaneously, 150 µl once a day. • #4. barbadin control group - the mice were fed with chow containing cuprizone for 9 weeks and then with regular chow without cuprizone for 2 weeks. […]
# Mouse brain sections were imaged using a mass spectrometer and then the lipid density was quantified (Fig 4). […]
# [3] = in vivo, from reference [6]; cited from earlier work
# [4] = tested on: mouse organotypic cerebellar slices; assay: Remyelination of organotypic cerebellar slices after LPC demyelination (Mbp mRNA by quantitative PCR); type: cell-based; details: LPC 0.4 mg/ml, then treatment in serum-free culture medium for 14-16 days; barbadin 16 µM, 7α,25OHC 0.1 µM, NIBR189 10 µM; concentration of CF3-7α,25OHC not given; vs untreated LPC slices
# Experimental: Organotypic cerebellar slices were sampled from ten-day old mice and then grown in an incubator for 14 days. After 14 days the myelin was chemically removed with LPC (0.4 mg/ml). Following the removal of the myelin sheaths, the slices were treated with: • 1. the control group: regular culture medium, without LPC • 2. LPC, then on serum-free culture medium for 14-16 days • 3. LPC followed by barbadin 16 µM in serum-free culture medium for 14-16 days • 4. LPC followed by 7α,25OHC 0.1 µM in serum-free culture medium for 14-16 days • 5. LPC followed by NIBR189 10 µM in serum-free culture medium for 14-16 days • 6. LPC followed by barbadin 16 µM + 7α,25OHC 0.1 µM in serum-free culture medium for 14-16 days
# Once the experiment was completed (remyelination for 14-16 days) the slices were collected and MBP mRNA levels were measured by the PCR quantitative method. In the mouse organotypic cerebellar slices in which myelin sheaths were chemically removed with lysophosphatidylcholine (LPC) spontaneous myelin regeneration took place except for the slices treated with a selective EBI2 receptor antagonist (NIBR189). The results once again reveal key significance of EBI2 intracellular signalling for myelin regeneration. […] Barbadin, which inhibits internalisation of the EBI2 receptor, is necessary to achieve the therapeutic effect (faster remyelination) in the case of non-modified oxysterol (Fig 1 and Fig 2a).
smiles,measurement,setting,value
"C[C@H](CCCC(C)(C)O)[C@H]1CC[C@H]2[C@H]3[C@H](CC[C@]12C)[C@@]1(C)CC[C@H](O)CC1=C[C@]3(O)C(F)(F)F [CF3-7α,25OHC, cholestene-7β-trifluoromethyl,3β,7α,25-triol]",level of Ebi2 expression,Ebi2 receptor,increases the level of Ebi2 expression
same,mRNA level of IL1β dropped by,"[1]; cerebellum lysates, cuprizone model, compared to the group treated solely with vehicles",28%
same,blood-brain barrier penetration,[1]; concluded from the IL1β effect in the cerebellum,penetrates the blood-brain barrier
same,pro-inflammatory cytokine IL1β in cerebellum lysates,"[1]; cuprizone model, group #5",Reduction
same,content of cholesterol in the corpus callosum,"[2]; group E (CF3-7α,25OHC 20 mg/kg) compared to control group treated with vehicles",higher
same,number of lipids with higher synthesis / concentration in the corpus callosum (brain),[2]; group E compared to untreated group C,15
same,in vivo half life,[3],12 h
same,remyelination (Mbp expression),[4],remyelinate quicker than slices not treated with anything; also recorded: remyelinate faster than the untreated slices
